Patent US11629171B2, “Beta-hairpin peptidomimetics” (POLYPHOR AG, priority 2017, dated 2023)
In brackets after ≈: the same amount, converted by molar mass. Where a SMILES comes first, the peptide text is derived from it. Bridges are numbered along the chain shown (N, C = ends). Roman numbers before positions name the chains, in order. [ ]: non-standard residue; d: D form. Thr(ol) = C[C@@H](O)[C@H](N)CO; Tle = CC(C)(C)[C@H](N)C(=O)O; Hiv = CC(C)[C@H](O)C(=O)O; dDab = NCC[C@@H](N)C(=O)O; Nle = CCCC[C@H](N)C(=O)O; Orn = NCCC[C@H](N)C(=O)O; Dab = NCC[C@H](N)C(=O)O; Abu = CC[C@H](N)C(=O)O; Dap = NC[C@H](N)C(=O)O

Key:
male ICR mice = assay: Tolerability in a mouse model (Maximum Tolerated Dose assay); format: in vivo; settings: 2 × 30 mg/kg s.c. at a 12-hr interval, groups of 3
Protocol: The tolerability of the peptides was tested in a mouse model at Pharmacology Discovery Services Taiwan Ltd, Taipei, Taiwan. The peptides were administered subcutaneously (s.c.) at 30 mg/kg or 40 mg/kg, respectively; twice at a 12-hr interval, for assessment of possible adverse effects in the Maximum Tolerated Dose (MTD) assay in male ICR (Institute of Cancer Research) mice. The peptides were dissolved in 0.9% NaCl at the concentrations either of 6 or 8 mg/mL, respectively, based on the free base molecular weight. The pH values of dosing solutions were adjusted to 6.5-7.6 before s.c. administration. A dosing volume at 5 mL/kg and a concentration of 6 or 8 mg/mL, respectively, was applied. The fresh prepared stock solution were stored at 4° C. during the study. Male ICR mice weighing 23±3 g were provided by BioLasco Taiwan (under Charles River Laboratories Licensee). Animals were acclimated for 3 days prior to use and were confirmed to be in good health. The peptides were administered s.c. at 30 mg/kg or 40 mg/kg, respectively, twice at a 12-hr interval, to groups of 3 ICR male mice and observed for the presence of acute toxic symptoms (mortality, convulsions, tremors, muscle relaxation, sedation, etc.) and autonomic effects (diarrhea, salivation, lacrimation, vasodilation, piloerection, etc.) during the first 30 min. The peptides were administered again at a 12-hr (two total doses) interval, following the first dose. The animals were then observed again for the presence of acute toxic symptoms and autonomic effects during the first 30 min.

[1] = test system: Acinetobacter baumannii 872842; format: cell-based; settings: 872842
Method in brief: (§1)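 Cation-adjusted MH-II broth, 0.002% polysorbate 80, inoculum near 10^6 CFU/mL. MIC read visually after 18-20 h, 35° C; units μg/mL.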

[2] = test system: Enterobacter cloacae 848840; format: cell-based; settings: 848840
Method in brief: as §1

[3] = test system: Escherichia coli ATCC 25922; format: cell-based; settings: ATCC 25922
Method in brief: as §1

[4] = test system: Klebsiella pneumoniae SSI #3010; format: cell-based; settings: SSI #3010
Method in brief: as §1

Escherichia coli 926415 = format: cell-based; settings: 926415
Method in brief: as §1

[5] = test system: Klebsiella pneumoniae 968733; format: cell-based; settings: 968733
Method in brief: as §1

[6] = test system: Pseudomonas aeruginosa ATCC 27853; format: cell-based; settings: ATCC 27853
Method in brief: as §1

[7] = test system: Acinetobacter baumannii DSM 30008; format: cell-based; settings: DSM 30008
Method in brief: as §1

[8] = test system: human red blood cells (hRBC); assay: Hemolysis; format: cell-based; settings: red cells of human, 1 h, 200
Method in brief: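 Washed fresh human RBC (20% v/v) incubated with peptide at 200 μg/mL for 1 h at 37° C with shaking. Supernatant OD540 measured after dilution, blank corrected; percent hemolysis = OD540 peptide / OD540 of 2% Triton X-100 lysis × 100, PBS with 10% water as 0%.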

Structure (SMILES) | Mortality and dose (male ICR mice) | MIC [1] [µg/mL] | MIC [2] [µg/mL] | MIC [3] [µg/mL] | MIC [4] [µg/mL] | MIC (Escherichia coli 926415) [µg/mL] | MIC [5] [µg/mL] | MIC [6] [µg/mL] | MIC [7] [µg/mL] | Hemolysis at 200 μg/mL [8] [%]
CC(C)C[C@@H]1NC(=O)[C@@H](CC(C)C)NC(=O)[C@H](CCN)NC(=O)[C@@H](NC(=O)[C@H](CN)NC(=O)[C@@H](NC(=O)[C@H](CCN)NC(=O)CC[C@H]2NC(=O)[C@H](CCCN)NC(=O)[C@H](CCN)NC(=O)[C@H](Cc3ccc(O)cc3)NC(=O)[C@@H](NC(=O)[C@@H](O)C(C)C)CSSC[C@@H](C(=O)N[C@H](C(N)=O)[C@@H](C)O)NC(=O)[C@H](C(C)(C)C)NC(=O)[C@H](CO)NC(=O)[C@H](Cc3c[nH]c4ccccc34)NC(=O)[C@H]([C@@H](C)O)NC2=O)[C@@H](C)O)CCNC(=O)[C@H]([C@@H](C)O)NC(=O)[C@H](CCN)NC(=O)[C@H](CCN)NC1=O [Ex. 161] (I: H-[Hiv]CY[Dab][Orn][dE]TWS[Tle]CT-NH2 / II: [Dab]T[Dap][Dab][Dab][dL]L[Dab][Dab]T; disulfide I:2-I:11; amide I:6-II:N; lactam II:4-II:C) | 0/3 died at 2 × 30 mg/kg | 0.25 (≈ 0.104 µM) | 1 (≈ 0.414 µM) | 0.125 (≈ 0.0518 µM) | 0.125 (≈ 0.0518 µM) | 0.5 (≈ 0.207 µM) | 0.25 (≈ 0.104 µM) | 0.25 (≈ 0.104 µM) | 0.125 (≈ 0.0518 µM) | 1
CC(C)C[C@@H]1NC(=O)[C@@H](CC(C)C)NC(=O)[C@H](CCN)NC(=O)[C@@H](NC(=O)[C@H](CCN)NC(=O)[C@@H](NC(=O)[C@H](CCN)NC(=O)CC[C@@H]2NC(=O)[C@@H](NC(=O)[C@H](Cc3ccc(O)cc3)NC(=O)[C@@H](NC(=O)[C@@H](O)C(C)C)[C@@H](C)O)CSSC[C@@H](C(=O)N[C@H](C(=O)N[C@@H](C)C(=O)N[C@H](CO)[C@@H](C)O)C(C)(C)C)NC(=O)[C@H](Cc3c[nH]c4ccccc34)NC(=O)[C@H]([C@@H](C)O)NC(=O)[C@@H](CCN)NC2=O)[C@@H](C)O)CCNC(=O)[C@H]([C@@H](C)O)NC(=O)[C@H](CCN)NC(=O)[C@H](CCN)NC1=O [Ex. 188] (I: H-[Hiv]TYCE[dDab]TWC[Tle]A[Thr(ol)] / II: [Dab]T[Dab][Dab][Dab][dL]L[Dab][Dab]T; disulfide I:4-I:9; amide I:5-II:N; lactam II:4-II:C) | 0/3 died at 2 × 30 mg/kg | 0.5 (≈ 0.21 µM) | 0.5 (≈ 0.21 µM) | 0.0625 (≈ 0.0262 µM) | 0.25 (≈ 0.105 µM) | 0.5 (≈ 0.21 µM) | 1 (≈ 0.419 µM) | 0.5 (≈ 0.21 µM) | 0.125 (≈ 0.0524 µM) | <1
CC(=O)N[C@H](C(=O)N[C@H](C(=O)N[C@@H](Cc1ccc(O)cc1)C(=O)N[C@H]1CSSC[C@@H](C(=O)N[C@H](C(=O)N[C@@H](C)C(=O)N[C@H](C(N)=O)[C@@H](C)O)C(C)C)NC(=O)[C@H](Cc2c[nH]c3ccccc23)NC(=O)[C@H](CO)NC(=O)[C@@H](CCN)NC(=O)[C@H](CCC(=O)N[C@@H](CCN)C(=O)N[C@H](C(=O)N[C@@H](CN)C(=O)N[C@H]2CCNC(=O)[C@H]([C@@H](C)O)NC(=O)[C@H](CCN)NC(=O)[C@H](CCN)NC(=O)[C@H](CC(C)C)NC(=O)[C@@H](CC(C)C)NC(=O)[C@H](CCN)NC2=O)[C@@H](C)O)NC1=O)[C@@H](C)O)C(C)C [Ex. 219] (I: Ac-VTYCE[dDab]SWCVAT-NH2 / II: [Dab]T[Dap][Dab][Dab][dL]L[Dab][Dab]T; disulfide I:4-I:9; amide I:5-II:N; lactam II:4-II:C) | 0/3 died at 2 × 30 mg/kg | 0.125 (≈ 0.0521 µM) | 0.125 (≈ 0.0521 µM) | 0.03125 (≈ 0.013 µM) | 0.0625 (≈ 0.0261 µM) | 0.25 (≈ 0.104 µM) | 0.5 (≈ 0.209 µM) | 0.125 (≈ 0.0521 µM) | 0.03125 (≈ 0.013 µM) | <1
CC[C@@H]1NC(=O)[C@@H](CC(C)C)NC(=O)[C@H](CCN)NC(=O)[C@@H](NC(=O)[C@H](CN)NC(=O)[C@@H](NC(=O)[C@H](CCN)NC(=O)CC[C@@H]2NC(=O)[C@H](CO)NC(=O)[C@H](Cc3ccc(O)cc3)NC(=O)[C@@H](NC(=O)[C@@H](NC(C)=O)C(C)C)CSSC[C@@H](C(=O)N[C@@H](CO)C(N)=O)NC(=O)[C@H]([C@@H](C)CC)NC(=O)[C@H](CO)NC(=O)[C@H](Cc3c[nH]c4ccccc34)NC(=O)[C@H](CCN)NC(=O)[C@@H](CCN)NC2=O)[C@@H](C)O)CCNC(=O)[C@H]([C@@H](C)O)NC(=O)[C@H](CCN)NC(=O)[C@H](CCN)NC1=O [Ex. 257] (I: Ac-VCYSE[dDab][Dab]WSICS-NH2 / II: [Dab]T[Dap][Dab][Dab][dL][Abu][Dab][Dab]T; disulfide I:2-I:11; amide I:5-II:N; lactam II:4-II:C) | 0/3 died at 2 × 30 mg/kg | 0.03125 (≈ 0.0131 µM) | 0.0625 (≈ 0.0262 µM) | 0.03125 (≈ 0.0131 µM) | 0.03125 (≈ 0.0131 µM) | 0.0625 (≈ 0.0262 µM) | 0.125 (≈ 0.0524 µM) | 0.0625 (≈ 0.0262 µM) | 0.03125 (≈ 0.0131 µM) | 1
CC[C@@H]1NC(=O)[C@@H](CC(C)C)NC(=O)[C@H](CCN)NC(=O)[C@@H](NC(=O)[C@H](CN)NC(=O)[C@@H](NC(=O)[C@H](CCN)NC(=O)CC[C@@H]2NC(=O)[C@H]([C@@H](C)O)NC(=O)[C@H](Cc3ccc(O)cc3)NC(=O)[C@@H](NC(=O)[C@@H](NC(C)=O)C(C)C)CSSC[C@@H](C(=O)N[C@@H](CO)C(N)=O)NC(=O)[C@H]([C@@H](C)CC)NC(=O)[C@H](CO)NC(=O)[C@H](Cc3c[nH]c4ccccc34)NC(=O)[C@H](CCN)NC(=O)[C@@H](CCN)NC2=O)[C@@H](C)O)CCNC(=O)[C@H]([C@@H](C)O)NC(=O)[C@H](CCN)NC(=O)[C@H](CCN)NC1=O [Ex. 258] (I: Ac-VCYTE[dDab][Dab]WSICS-NH2 / II: [Dab]T[Dap][Dab][Dab][dL][Abu][Dab][Dab]T; disulfide I:2-I:11; amide I:5-II:N; lactam II:4-II:C) | 0/3 died at 2 × 30 mg/kg | 0.03125 (≈ 0.013 µM) | 0.0625 (≈ 0.0261 µM) | 0.0625 (≈ 0.0261 µM) | 0.03125 (≈ 0.013 µM) | 0.25 (≈ 0.104 µM) | 0.125 (≈ 0.0521 µM) | 0.0625 (≈ 0.0261 µM) | 0.03125 (≈ 0.013 µM) | 2
CCCC[C@H](NC(C)=O)C(=O)N[C@H]1CSSC[C@@H](C(=O)N[C@H](C(N)=O)[C@@H](C)O)NC(=O)[C@H]([C@@H](C)CC)NC(=O)[C@H](CO)NC(=O)[C@H](Cc2c[nH]c3ccccc23)NC(=O)[C@H](CCN)NC(=O)[C@@H](CCN)NC(=O)[C@H](CCC(=O)N[C@@H](CCN)C(=O)N[C@H](C(=O)N[C@@H](CN)C(=O)N[C@H]2CCNC(=O)[C@H]([C@@H](C)O)NC(=O)[C@H](CCN)NC(=O)[C@H](CCN)NC(=O)[C@H](CC)NC(=O)[C@@H](CC(C)C)NC(=O)[C@H](CCN)NC2=O)[C@@H](C)O)NC(=O)[C@H](CO)NC(=O)[C@H](Cc2ccc(O)cc2)NC1=O [Ex. 259] (I: Ac-[Nle]CYSE[dDab][Dab]WSICT-NH2 / II: [Dab]T[Dap][Dab][Dab][dL][Abu][Dab][Dab]T; disulfide I:2-I:11; amide I:5-II:N; lactam II:4-II:C) | 0/3 died at 2 × 30 mg/kg | 0.03125 (≈ 0.013 µM) | 0.0625 (≈ 0.0259 µM) | 0.01562 (≈ 0.00647 µM) | 0.03125 (≈ 0.013 µM) | 0.125 (≈ 0.0518 µM) | 0.0625 (≈ 0.0259 µM) | 0.0625 (≈ 0.0259 µM) | 0.01562 (≈ 0.00647 µM) | 2
